Laboratory results taken from patent US11780832B2, “Lactivicin compounds, their preparation and use as antibacterial agents” (priority 2021, dated 2023).
In brackets after ≈: the same amount, converted by molar mass.

Legend:
Type in all cases: cell-based
[1] = system: Citrobacter freundii species complex OXA-181; experiment: MIC, CLSI broth microdilution; settings: Citrobacter freundii species complex, OXA-181; read-out: MIC
How it was run: (§1)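 Frozen stocks (−80 °C, skim milk) were subcultured twice. Fresh cultures were suspended in broth and added to 2-fold compound dilutions to a working inoculum of 5×10^5 CFU/mL. Final test concentrations spanned 16-0.0125 μg/mL, following the CLSI microdilution method.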

[2] = system: Escherichia coli ATCC 25922; experiment: MIC, CLSI broth microdilution; settings: ATCC25922
How it was run: as §1

[3] = system: Escherichia coli CTX-M-15; experiment: MIC, CLSI broth microdilution; settings: CTXM15
How it was run: as §1

[4] = system: Klebsiella aerogenes VIM-1, SHV-12; experiment: MIC, CLSI broth microdilution
How it was run: as §1

[5] = system: Klebsiella oxytoca KPC-2, TEM-1; experiment: MIC, CLSI broth microdilution; settings: KPC-2, TEM-1, read-out: MIC
How it was run: as §1

[6] = system: Klebsiella pneumoniae KPC-2; experiment: MIC, CLSI broth microdilution; settings: KPC2
How it was run: as §1

[7] = system: Klebsiella pneumoniae KPC-3; experiment: MIC, CLSI broth microdilution; settings: KPC3, KPC-3, read-out: MIC
How it was run: as §1

[8] = system: Klebsiella pneumoniae OXA-163, OXA-1_OXA-30, SHV-1, TEM-1; experiment: MIC, CLSI broth microdilution
How it was run: (§2)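 CLSI broth microdilution; 2-fold compound series, final 16-0.0125 μg/mL; final inoculum 5×10^5 CFU/mL. Strains genotyped for resistance markers, passaged twice from frozen stock before testing.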

[9] = system: Klebsiella pneumoniae OXA-48, SHV-1; experiment: MIC, CLSI broth microdilution
How it was run: as §2

[10] = system: Klebsiella pneumoniae SHV-12; experiment: MIC, CLSI broth microdilution; settings: SHV12, SHV-12, read-out: MIC
How it was run: as §1

[11] = system: Pseudomonas aeruginosa ATCC 27853; experiment: MIC, CLSI broth microdilution; settings: ATCC27853
How it was run: as §1

[12] = system: Pseudomonas aeruginosa AmpC overexpressed; experiment: MIC, CLSI broth microdilution
How it was run: as §2

[13] = system: Pseudomonas aeruginosa OprD negative; experiment: MIC, CLSI broth microdilution
How it was run: as §2

[14] = system: Serratia marcescens AmpC overexpressed; experiment: MIC, CLSI broth microdilution
How it was run: as §2

[15] = system: Serratia marcescens SME-2; experiment: MIC, CLSI broth microdilution; settings: SME2
How it was run: as §1

[16] = system: Citrobacter freundii species complex Elevated AmpC; experiment: MIC against Elevated AmpC producing strains, compound alone; settings: row r16
Description: (§3) Gram-negative and Gram-positive bacterial strains used during the in vitro minimum inhibitory concentration (MIC) determination were obtained either from the American Type Culture Collection (ATCC) or from clinical specimens. All strains were characterized genotypically and the respective antibiotic resistance markers for each strain were identified.
(§4) Isolates were sub-cultured onto appropriate media and stocked in skim milk at −80° C. Following two subcultures from frozen stock, in vitro antimicrobial susceptibility testing was performed using the Clinical and Laboratory Standards Institute (CLSI) broth microdilution method. Briefly, fresh cultures were suspended in culture media to give a final stock inoculum size of 5×10^7 colony forming units per milliliter of broth (CFU/mL). Test compounds were prepared at a stock solution concentration equal to 128 μg/mL, then diluted to give a final an initial working concentration of 32 μg/mL. 100 μL of the stock solutions were added to the first wells in a 96-well plate and were then diluted using a 2-fold dilution method to give a range of 32-0.025 μg/mL. 100 μL of the bacterial suspensions were then added to the 96-well plates to give a final working inoculum size of 5×10^5 CFU/mL. The final compound concentration range was 16-0.0125 μg/mL. […] MICs for comparator agents were determined using custom-designed, in-house prepared 96-well broth microdilution panels.

[17] = system: Enterobacter cloacae species complex Elevated AmpC; experiment: as above
Description: as §3, §4

[18] = system: Escherichia coli Elevated AmpC; experiment: as above
Description: as §3, §4

[19] = system: Citrobacter freundii species complex Elevated AmpC; experiment: Synergistic activity: MIC in the presence of Avibactam; settings: row r16, in the presence of Avibactam @ 4 μg/mL
Description: as §4
(§5) The same method used to test the activity of the claimed compounds was used to determine their synergistic activity when combined with a β-lactamase inhibitor except that either a fixed concentration or fixed ratio of a β-lactamase inhibitor was added to the 96-well plates prior to adding the bacteria cultures. Synergistic activity was defined as the reduction of MIC of a given compound when tested using the β-lactamase inhibitor versus testing the compound in the absence of a β-lactamase inhibitor.

[20] = system: Enterobacter cloacae species complex Elevated AmpC; experiment: as above
Description: as §4, §5

Escherichia coli CMY-DHA = experiment: as above
Description: as §4, §5

[21] = system: Escherichia coli Elevated AmpC; experiment: as above
Description: as §4, §5

[22] = system: Klebsiella pneumoniae CMY-DHA; experiment: as above; settings: row r32, in the presence of Avibactam @ 4 μg/mL
Description: as §4, §5

[23] = system: Proteus mirabilis CMY-DHA; experiment: as above; settings: row r36, in the presence of Avibactam @ 4 μg/mL
Description: as §4, §5

Question: For `Nc1nc(/C(=N/OC2(C(=O)O)CC2)C(=O)N[C@H]2CON(C3(C(=O)O)C[C@H](N4Cc5cc(O)c(O)cc5C4=O)C(=O)O3)C2=O)cs1` (stereo partly drawn) [Cmpd 28, (4S)-2-[(4S)-4-{[(2Z)-2-(2-amino-1,3-thiazol-4-yl)-2-{[(1-carboxycyclopropyl)oxy]imino}acetyl]amino}-3-oxo-1,2-oxazolidin-2-yl]-4-(5,6-dihydroxy-1-oxo-1,3-dihydro-2H-isoindol-2-yl)-5-oxooxolane-2-carboxylic acid], which MIC [1] is on record?
Answer: 0.12 µg/mL (≈ 0.186 µM)

Question: And the MIC [2]?
Answer: 0.25 µg/mL (≈ 0.387 µM)

Question: And the MIC [3]?
Answer: 1 µg/mL (≈ 1.55 µM)

Question: And the MIC [4]?
Answer: 0.12 µg/mL (≈ 0.186 µM)

Question: What about the MIC [5] of the same molecule?
Answer: 0.0149 µg/mL (≈ 0.023 µM)

Question: What about the MIC [6] of the same molecule?
Answer: 0.0149 µg/mL (≈ 0.023 µM)

Question: What about the MIC [7] of the same molecule?
Answer: 0.25 µg/mL (≈ 0.387 µM)

Question: What about the MIC [8] of the same molecule?
Answer: 0.25 µg/mL (≈ 0.387 µM)

Question: And the MIC [9]?
Answer: 0.0149 µg/mL (≈ 0.023 µM)

Question: What about the MIC [10] of the same molecule?
Answer: 0.06 µg/mL (≈ 0.0928 µM)

Question: And the MIC [11]?
Answer: 1 µg/mL (≈ 1.55 µM)

Question: What about the MIC [12] of the same molecule?
Answer: 2 µg/mL (≈ 3.09 µM)

Question: What about the MIC [13] of the same molecule?
Answer: 0.5 µg/mL (≈ 0.773 µM)

Question: What about the MIC [14] of the same molecule?
Answer: 0.25 µg/mL (≈ 0.387 µM)

Question: And the MIC [15]?
Answer: 0.12 µg/mL (≈ 0.186 µM)

Question: What about the MIC [16] of the same molecule?
Answer: 1 µg/mL (≈ 1.55 µM)

Question: And the MIC [17]?
Answer: 2 µg/mL (≈ 3.09 µM)

Question: What about the MIC ([17]; strain of row r7) of the same molecule?
Answer: 8 µg/mL (≈ 12.4 µM)

Question: What about the MIC ([17]; strain of row r20) of the same molecule?
Answer: 1 µg/mL (≈ 1.55 µM)

Question: And the MIC ([18]; strain of row r10)?
Answer: 0.06 µg/mL (≈ 0.0928 µM)

Question: What about the MIC ([18]; strain of row r11) of the same molecule?
Answer: 0.5 µg/mL (≈ 0.773 µM)

Question: What about the MIC ([18]; strain of row r12) of the same molecule?
Answer: 1 µg/mL (≈ 1.55 µM)

Question: And the MIC ([18]; strain of row r13)?
Answer: 0.25 µg/mL (≈ 0.387 µM)

Question: What about the MIC ([18]; strain of row r14) of the same molecule?
Answer: 0.12 µg/mL (≈ 0.186 µM)

Question: And the MIC ([18]; strain of row r15)?
Answer: 1 µg/mL (≈ 1.55 µM)

Question: And the MIC [19]?
Answer: 0.12 µg/mL

Question: And the MIC ([20]; in the presence of Avibactam @ 4 μg/mL)?
Answer: 0.25 µg/mL

Question: And the MIC ([20]; strain of row r7, in the presence of Avibactam @ 4 μg/mL)?
Answer: 0.5 µg/mL

Question: And the MIC ([20]; strain of row r20, in the presence of Avibactam @ 4 μg/mL)?
Answer: 0.015 µg/mL

Question: And the MIC (Escherichia coli CMY-DHA; strain of row r26, in the presence of Avibactam @ 4 μg/mL)?
Answer: 0.12 µg/mL

Question: What about the MIC (Escherichia coli CMY-DHA; strain of row r27, in the presence of Avibactam @ 4 μg/mL) of the same molecule?
Answer: <=0.008 μg/mL

Question: And the MIC (Escherichia coli CMY-DHA; strain of row r28, in the presence of Avibactam @ 4 μg/mL)?
Answer: 0.06 µg/mL

Question: And the MIC (Escherichia coli CMY-DHA; strain of row r29, in the presence of Avibactam @ 4 μg/mL)?
Answer: 0.12 µg/mL

Question: And the MIC (Escherichia coli CMY-DHA; strain of row r30, in the presence of Avibactam @ 4 μg/mL)?
Answer: <=0.008 μg/mL

Question: And the MIC (Escherichia coli CMY-DHA; strain of row r31, in the presence of Avibactam @ 4 μg/mL)?
Answer: 0.12 µg/mL

Question: What about the MIC (Escherichia coli CMY-DHA; strain of row r34, in the presence of Avibactam @ 4 μg/mL) of the same molecule?
Answer: 0.015 µg/mL

Question: What about the MIC (Escherichia coli CMY-DHA; strain of row r35, in the presence of Avibactam @ 4 μg/mL) of the same molecule?
Answer: 0.03 µg/mL

Question: And the MIC ([21]; strain of row r10, in the presence of Avibactam @ 4 μg/mL)?
Answer: 0.015 µg/mL

Question: And the MIC ([21]; strain of row r11, in the presence of Avibactam @ 4 μg/mL)?
Answer: 0.06 µg/mL

Question: What about the MIC ([21]; strain of row r12, in the presence of Avibactam @ 4 μg/mL) of the same molecule?
Answer: 0.03 µg/mL

Question: And the MIC ([21]; strain of row r13, in the presence of Avibactam @ 4 μg/mL)?
Answer: <=0.008 μg/mL

Question: What about the MIC ([21]; strain of row r14, in the presence of Avibactam @ 4 μg/mL) of the same molecule?
Answer: 0.06 µg/mL

Question: And the MIC ([21]; strain of row r15, in the presence of Avibactam @ 4 μg/mL)?
Answer: 0.25 µg/mL

Question: What about the MIC [22] of the same molecule?
Answer: 0.12 µg/mL

Question: What about the MIC [23] of the same molecule?
Answer: 0.03 µg/mL
